Experimental findings from patent US20100267928A1, “ACTIVATABLE DIAGNOSTIC AND THERAPEUTIC COMPOUND” (priority 2007, published 2010) are described below.

Primed or numbered codes have the meaning given here. Where no end group is shown, it is not given here. The star is where a group is joined. FITC = O=C1OC2(c3ccc(O)cc3Oc3cc(O)ccc32)c2ccc(NC(=S)*)cc21; DOTA = O=C(O)CN1CCN(CC(=O)O)CCN(CC(=O)*)CCN(CC(=O)O)CC1; FITC′ = fluorescent dye, fluorescein isothiocyanate

The target of one data set is T1, MMP-2 (Homo sapiens, UniProt P08253).
T1 construct: purchased Calbiochem
T1 sequence (P08253 110-660): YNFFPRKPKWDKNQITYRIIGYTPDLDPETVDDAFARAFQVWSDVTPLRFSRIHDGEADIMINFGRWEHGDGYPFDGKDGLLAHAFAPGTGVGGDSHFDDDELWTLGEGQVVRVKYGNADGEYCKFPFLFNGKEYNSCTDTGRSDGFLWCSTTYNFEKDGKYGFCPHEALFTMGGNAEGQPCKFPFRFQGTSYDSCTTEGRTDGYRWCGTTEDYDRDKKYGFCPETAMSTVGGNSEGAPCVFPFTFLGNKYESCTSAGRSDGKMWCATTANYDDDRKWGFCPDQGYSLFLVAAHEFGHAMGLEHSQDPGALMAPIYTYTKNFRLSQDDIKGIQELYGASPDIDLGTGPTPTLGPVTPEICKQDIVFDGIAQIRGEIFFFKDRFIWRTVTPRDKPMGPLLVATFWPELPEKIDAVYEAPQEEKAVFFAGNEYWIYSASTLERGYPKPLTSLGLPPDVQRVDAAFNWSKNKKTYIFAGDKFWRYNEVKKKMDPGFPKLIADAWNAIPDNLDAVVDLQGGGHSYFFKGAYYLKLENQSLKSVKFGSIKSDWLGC
As to the kind of experiment: Cleavage test with MMP-2, cleavage products examined by HPLC. The note with it: for cleavage of the compound by MMP-2 (HPLC): already active MMP-2 or proform of MMP-2 activated by APMA, 2 hours in HEPES buffer; for cleavage of the compound by MMP-2 in presence of the inhibitor (HPLC): with MMP-2 inhibitor I. In kind it is biochemical. The protocol:
The incubation in HEPES buffer with active MMP-2 was made for 2 hours.
[…]. For this 1% APMA stock solution (100 mM in DMSO) was added to the solution containing the MMP-2 proenzyme and the compounds (final APMA concentration: 1 mM, with 1% DMSO).
In the following also an incubation of 2 hours was performed. In addition the tests were made with the MMP-2 inhibitor I (Calbiochem). All six compounds were, as a control, also incubated into HEPES buffer without MMP-2 for two hours.

The test system of data set [1] is LN18 and U373 glioma cells. As to the kind of experiment: Confocal laser scanning microscopy (CLSM) and FACS, staining of cell nuclei. In kind it is cell-based, human. The note with it: 130 μM; for staining of the cell nuclei, MMP-2 active: APMA-containing medium without inhibitor; for staining of the cell nuclei, MMP-2 inactive: APMA-containing medium, MMP-2 inactive/inhibited. How it is done:
(§1) The FACS analysis was performed on a Becton-Dickinson FACSCalibur. [[…] of the cell suspension (1×10^6 cells+[…] FACS buffer (DPBS buffer with 1% paraformaldehyde)]. Approximately 25.000 to 35.000 cells were measured per sample [fluorescence excitation: argon-ion laser (480 nm), fluorescence detection: 540 to 565 nm band-path filter]. The tests were repeated two times.

Data set [2] concerns LN18 and U373 glioma cells. Conditions: for apoptosis (binding of Alexa annexin to phosphatidyl serine; morphologic alterations), MMP-2 active / signs of cell death, MMP-2 inactive: 130 μM; for apoptosis (binding of Alexa annexin to phosphatidyl serine; morphologic alterations), MMP-2 active: APMA-containing medium without inhibitor; for signs of cell death, MMP-2 inactive: data not shown. How it is done: Human malignant glioma cells (U373 and LN18) were seated into 25 cm^2 culture flasks which contained 3 ml RPMI medium. This was left as it is for one day so that enough matrix metalloprotenases (MMP-2) could accumulate.
In a second test the same compounds were again dissolved in the media of 12 flasks (130 μM), however now with MMP-2 inhibitor I (Calbiochem).
As a control four small flasks were used wherein both cell lines were incubated in a one day old medium with and also without APMA.
For the confocal laser scanning microscopy an inverted LSM510 laser scanning microscope (Karl Zeiss, Jena, Deutschland) (Objectives: LD Achroplan 40×0.6, Plan Neofluar 20×0.50, 40×0.75) was used [fluorescence excitation at 488 nm (argon-ion laser) and […] (helium-neon laser)]. Superimposed images of FITC- and alexa-stained cells were produced. All measurements were performed on living, non-fixed cells for three times.

The next data set has as its system LN18 glioma cells. In words: FACS analysis of fluorescence-stained cells. In kind it is cell-based, human. Conditions: for fluorescence after cleavage by MMP-2 in comparison to the components 2 and 2A: depending on the concentration, FIG. 5; for strongly stained cells in FACS after cleavage by active MMP-2: active versus inactive MMP-2 in culture medium. How it is done: as §1

Data set [3] deals with U373 and LN18 glioma cells. In words: Magnetic resonance relaxometry on glioma cell centrifugates. In kind it is cell-based, human. Conditions: for shortening of the T1 time, inhibitor-free medium: without MMP-2 inhibitor. The protocol: Human U373 and LN18 glioma cells were grown in 25 cm^2 culture flasks (70% confluence). Accutase™ (PAA laboratories, Pasching, Austria) was added to strip off the cells from the bottom of the culture flasks.
In a first try the cells were collected and subsequently distributed on 16 Eppendorf-vials (6×10^6 cells per vial). The cells in the first four vials were used as a control (only RPMI medium with and also without APMA, two cell lines). […] In the following it was washed for three times with PBS and centrifuged with 800 rpm (rounds per minute) for 5 minutes.
In another test adherent U373 and LN18 glioma cells were incubated with the compounds 2A, 4A and […], and were stripped off in the following and collected in Eppendorf vials for the MRT. The MRT analysis of the Eppendorf vials with the cell centrifugates were performed in a 3 Tesla full body MRT apparatus (Trio, Siemens Magnetom Sonata, circular polarised knee coil).
The following spin echo sequence was used to obtain sagittal T1-weighted MRT images.
[…] TE (echo time): 7.4 ms, flip angle 90°, averages: 1, concatenations: 2, measurements: 2, number of slices: 19, distance factor: 30%, slice thickness: 3 mm, field of view read: 180 mm, field of view phase: 100%, base resolution: 256, phase resolution: 100%, voxel size: 0.7×0.7×3.0 mm, scan time: 1:48 min.
By means of multiple spin echo measurements (TR: 20-8000 ms, 50 different TR values) different signal intensities were measured through which the T1 relaxation time could be determined.
TR: 20-8000 ms (50 different TR values), TE: 6.4 ms, flip angle 90°, averages: 1, measurements; 1, number of slices: 1, slice thickness: 1 mm, field of view read: 120 mm, field of view phase: 87.5, base resolution 128, phase resolution; 100% voxel size: 0.9×0.9×1 mm.
For the analysis and calculations a Matlab programme (Math Works, Natick, Mass., USA) was used. The T1 values were determined via a two-parameter fit. All signal curves were examined and rated as being mono-exponential. All tests were performed three times.

“K(DOTA)-GG-K(FITC)-RRRR-G-PLGLA-G-RRRR-K(FITC)-GG-K(DOTA) (K(DOTA)GGK(FITC)RRRRGPLGLAGRRRRK(FITC)GGK(DOTA)) [V5]”: in the data set with MMP-2, the “cleavage of the compound by MMP-2 (HPLC)” value is “split into two new peaks” and the “cleavage of the compound by MMP-2 in presence of the inhibitor (HPLC)” value (shortened to “cleavage … of the inhibitor (HPLC)”) was “prevented”. Further, the “cleavage of the compound by MMP-2 (HPLC)” value in the data set with MMP-2 (listed as 5) is recorded as “cleaved”. Further, in data set [1], the “staining of the cell nuclei, MMP-2 active” value is “accumulates in the cell nuclei” and the “staining of the cell nuclei, MMP-2 inactive” value (from here on “staining … MMP-2 inactive”) is “the cells remain unstained”. In data set [1] (listed as 5), the “staining … MMP-2 inactive” value is reported as “few stained cell nuclei”. In addition, in data set [2], the “apoptosis (binding of Alexa annexin to phosphatidyl serine; morphologic alterations), MMP-2 active” value is “apoptotic” and the “signs of cell death, MMP-2 inactive” value is given as “did not show any signs of cell death”. Further, the “fluorescence after cleavage by MMP-2 in comparison to the components 2 and 2A” value (“fluorescence after cleavage” for short) in the data set with LN18 glioma cells is recorded as “stronger fluorescence”.
With “K(DOTA)-G-PLGLA-GGPKKKRKVRRRR-K(FITC)-GG-K(DOTA) (K(DOTA)GPLGLAGGPKKKRKVRRRRK(FITC)GGK(DOTA)) [V4]”, in the data set with MMP-2, the “cleavage of the compound by MMP-2 (HPLC)” value is on record as “cleaved” and the “cleavage … of the inhibitor (HPLC)” value is “prevented”. In addition, in data set [1], the “staining of the cell nuclei, MMP-2 active” value is “staining of the cell nuclei can only be observed after the cleavage” and the “staining … MMP-2 inactive” value is recorded as “few stained cell nuclei”. In data set [2], the “apoptosis (binding of Alexa annexin to phosphatidyl serine; morphologic alterations), MMP-2 active” value was “apoptotic” and the “signs of cell death, MMP-2 inactive” value was “did not show any signs of cell death”. For the same compound, the “strongly stained cells in FACS after cleavage by active MMP-2” value in the data set on LN18 glioma cells (LN18 glioma cells) was “considerable increase of the strongly stained cells”. Also, the “displacement of the peak of the FACS histogram to the right, V4 versus V2” value in the data set on LN18 glioma cells (LN18 glioma cells, after cleavage by active MMP-2) was “more pronounced”. Besides, in the data set with LN18 glioma cells, the “fluorescence after cleavage” value was “stronger fluorescence”.
Take “PKKKRKV-K(FITC)-GG-K(DOTA)-PLGVR-K(DOTA) (PKKKRKVKGGKPLGVRK) [V2]”: in the data set with MMP-2, the “cleavage of the compound by MMP-2 (HPLC)” value is “cleaved” and the “cleavage … of the inhibitor (HPLC)” value is recorded as “prevented”. In addition, the “staining … MMP-2 inactive” value in data set [1] is “few stained cell nuclei”. For the same compound, the “signs of cell death, MMP-2 inactive” value in data set [2] is listed as “did not show any signs of cell death”. Also, the “strongly stained cells in FACS after cleavage by active MMP-2” value in the data set on LN18 glioma cells (LN18 glioma cells) is listed as “considerable increase of the strongly stained cells”.
Take “PKKKRKV-K(FITC)-GG-K(GdDOTA)-PLGVR-K(GdDOTA) (PKKKRKVKGGKPLGVRK; not fully specified) [V2A]”: in the data set with MMP-2, the “cleavage of the compound by MMP-2 (HPLC)” value was “cleaved” and the “cleavage … of the inhibitor (HPLC)” value is on record as “prevented”. Also, the “staining … MMP-2 inactive” value in data set [1] is listed as “few stained cell nuclei”. In addition, in data set [2], the “signs of cell death, MMP-2 inactive” value was “did not show any signs of cell death”. In addition, the “shortening of the T1 time in comparison to the native control, inhibitor-containing medium” value in data set [3] (26 and 130 μM, with MMP-2 inhibitor) is listed as “minor shortening of the T1 time”. Further, the “signal intensity at TR: 400 ms, active MMP-2 versus inactive MMP-2” value in data set [3] (LN18 glioma cell centrifugates, 26 and 130 μm, washed and centrifuged three times) is “considerably higher signal intensity”. In data set [3], the “shortening of the T1 time, inhibitor-free medium” value is on record as “more distinct shortening of the T1 time”.
Consider `CCCCCCCC/C=C\CCCCCCCC(=O)NO` [MMP-2 inhibitor I, reference compound], for which the “damage of the cell vitality by additive in the medium” value in data set [2] (additive alone in RPMI medium, LN18 and U373 glioma cells) is “did not result in a damage of the cell vitality”.
As to “K-(GdDOTA)-GG-K(FITC)-RRRR-G-PLGLA-G-RRRR-K(FITC)-GG-K(GdDOTA) (K(DOTA)GGK(FITC′)RRRRGPLGLAGRRRRK(FITC′)GGK(DOTA)-NH2; also: DOTA groups complexed with Gd (GdDOTA)) [V5A]”, the entries for the “cleavage of the compound by MMP-2 (HPLC)” value with MMP-2 (listed as 5A) and in the data set with MMP-2 (listed as V5a) were “cleaved” and “split into two new peaks”, respectively. Besides, in the data set with MMP-2, the “cleavage … of the inhibitor (HPLC)” value is on record as “prevented”. For the same compound, in data set [1], the “staining … MMP-2 inactive” value is reported as “few stained cell nuclei”. In addition, in data set [2], the “apoptosis (binding of Alexa annexin to phosphatidyl serine; morphologic alterations), MMP-2 active” value is recorded as “apoptotic”. In the data set with LN18 glioma cells, the “fluorescence after cleavage” value is reported as “stronger fluorescence”. In addition, the “shortening of the T1 time in comparison to component 2A, inhibitor-free medium” value in data set [3] (depending on the concentration) was “stronger shortening of the T1 time”. Moreover, the “shortening of the T1 time, inhibitor-free medium” value in data set [3] is given as “more distinct shortening of the T1 time”.
